Assays:
[1] = target: recombinant human 11β-HSD type 1 enzyme (Homo sapiens, UniProt P28845); assay: 11β-HSD Type 1 Enzyme Assay (NADPH fluorescence); format: biochemical; conditions: three hour incubation, read-out: Human 11-βHSD1 IC50
Procedure: 11β-HSD Type 1 Enzyme Assay
Human 11β-HSD type 1 activity is measured by assaying NADPH production by fluorescence assay. Solid compounds are dissolved in DMSO to a concentration of 10 mM. Twenty microliters of each are then transferred to a column of a 96-well polypropylene Nunc plate where they are further diluted 50-fold followed by subsequent two-fold titration, ten times across the plate with additional DMSO using a Tecan Genesis 200 automated system. Plates are then transferred to a Tecan Freedom 200 system with an attached Tecan Temo 96-well head and an Ultra 384 plate reader. Reagents are supplied in 96-well polypropylene Nunc plates and are dispensed individually into black 96-well Molecular Devices High Efficiency assay plates (40 μL/well capacity) in the following fashion: 9 μL/well of substrate (2.22 mM NADP, 55.5 μM Cortisol, 10 mM Tris, 0.25% Prionex, 0.1% Triton X100), 3 μL/well of water to compound wells or 3 μL to control and standard wells, 6 μL/well recombinant human 11β-HSD type 1 enzyme, 2 μL/well of compound dilutions. […] Final DMSO concentration is 0.5% for all compounds, controls and standards. […] Plates are then shaken once more for 15 seconds then placed into an Ultra 384 microplate reader (355EX/460EM) for detection of NADPH fluorescence.

[2] = tested on: cortisone to cortisol conversion (11β-HSD1) in male C57BL/6 mice; assay: Acute In Vivo Cortisone Conversion Assay; conditions: oral dose of 10 mg/kg, cortisone challenge 16 hours post dose, serum cortisol
Procedure: Acute In Vivo Cortisone Conversion Assay
In general, compounds are dosed orally into mice, the mice are challenged with a subcutaneous injection of cortisone at a set timepoint after compound injection, and the blood of each animal is collected some time later. Separated serum is then isolated and analyzed for levels of cortisone and cortisol by LC-MS/MS, followed by calculation of mean cortisol and percent inhibition of each dosing group. Specifically, male C57BL/6 mice are obtained from Harlan Sprague Dawley at average weight of 25 grams. Exact weights are taken upon arrival and the mice randomized into groups of similar weights. Compounds are prepared in 1% w-w HEC, 0.25% w-w polysorbate 80, 0.05% w-w Dow Corning antifoam #1510-US at various doses based on assumed average weight of 25 grams. Compounds are dosed orally, 200 μl per animal, followed by a subcutaneous dose, 200 μl per animal, of 30 mg/kg cortisone at 1 to 24 hours post compound dose. At 10 minutes post cortisone challenge, each animal is euthanized for 1 minute in a CO2 chamber, followed by blood collection via cardiac puncture into serum separator tubes. Once fully clotted, tubes are spun at 2500×g, 4° C. for 15 minutes, the serum transferred to wells of 96-well plates (Corning Inc, Costar #4410, cluster tubes, 1.2 ml, polypropylene), and the plates are frozen at −20° C. until analysis by LC-MS/MS. […]

[3] = target: T1, 11β-HSD1 in primary human aortic smooth muscle cells (AoSMC) (Homo sapiens, UniProt P28845); assay: Human Aortic Smooth Muscle Cell Assay (cortisone to cortisol conversion); format: cell-based; conditions: AoSMC induced with hTNFα; cortisol by time resolved immunoassay
T1 construct: containing 12 ng/mL hTNFα to induce expression of 11β-HSD1; endogenous in cells; host or cells: primary human aortic smooth muscle cells (AoSMC), induced with hTNFα
Procedure: Human Aortic Smooth Muscle Cell Assay
Primary human aortic smooth muscle cells (AoSMC) are cultured in 5% FBS growth medium to a passage number of 6, then pelleted by centrifugation and resuspended at a density of 9×10^4 cells/mL in 0.5% FBS assay medium containing 12 ng/mL hTNFα to induce expression of 11β-HSD1. Cells are seeded into 96-well tissue culture assay plates at 100 μL/well (9×10^3 cells/well) and incubated for 48 hours at 37° C., 5% CO2. Following induction, cells are incubated for 4 hours at 37° C., 5% CO2 in assay medium containing test compounds then treated with 10 μL/well of 10 μM cortisone solubilized in assay medium, and incubated for 16 hours at 37° C., 5% CO2. Medium from each well is transferred to a plate for subsequent analysis of cortisol using a competitive fluorescence resonance time resolved immunoassay. In solution, an allophycocyanin (APC)-cortisol conjugate and free cortisol analyte compete for binding to a mouse anti-cortisol antibody/Europium (Eu)-anti mouse IgG complex. Higher levels of free cortisol result in diminishing energy transfer from the Europium-IgG to the APC-cortisol complex resulting in less APC fluorescence. Fluorescent intensities for Europium and APC are measured using a LJL Analyst AD. Europium and APC excitation is measured using 360 nm excitation and 615 nm and 650 nm emission filters respectively. Time resolved parameters for Europuium were 1000 μs integration time with a 200 μs delay. APC parameters are set at 150 μs integration time with a 50 μs delay. Fluorescent intensities measured for APC are modified by dividing by the Eu fluorescence (APC/Eu). This ratio is then used to determine the unknown cortisol concentration by interpolation using a cortisol standard curve fitted with a 4-parameter logistic equation. These concentrations are then used to determine compound activity by plotting concentration versus % inhibition, fitting with a 4-parameter curve and reporting the IC50.

T1 sequence (P28845 whole entry): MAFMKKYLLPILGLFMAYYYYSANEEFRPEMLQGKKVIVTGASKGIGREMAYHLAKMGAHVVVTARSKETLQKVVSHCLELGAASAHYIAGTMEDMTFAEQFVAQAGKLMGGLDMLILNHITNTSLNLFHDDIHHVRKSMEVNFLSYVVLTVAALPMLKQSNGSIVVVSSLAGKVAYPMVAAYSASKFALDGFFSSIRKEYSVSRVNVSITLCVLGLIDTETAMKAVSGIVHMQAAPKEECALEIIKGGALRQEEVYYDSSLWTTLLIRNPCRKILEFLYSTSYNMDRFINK
Chain of recombinant human 11β-HSD type 1 enzyme (P28845 whole entry): as above

| SMILES | IC50 [3] | IC50 [1] | % Inhibition after 16 hours (dose of 10 (mg/kg)) [2] |
| --- | --- | --- | --- |
| O=C(c1ccc(-c2cc(Cl)c(CC3CCN(C4CCCCC4)C3=O)c(Cl)c2)cc1)N1CCN(CCF)CC1 (single isomer, unassigned) [Example 62, 1-cyclohexyl-3-{3,5-dichloro-4′-[4-(2-fluoro-ethyl)-piperazine-1-carbonyl]-biphenyl-4-ylmethyl}-pyrrolidin-2-one] |  | 115 nM | 85% |
| O=C(c1ccc(-c2cc(Cl)c(CC3CCN([C@H]4CC[C@@H](O)CC4)C3=O)c(Cl)c2)cc1)N1CCS(=O)(=O)CC1 (stereo partly drawn) [Example 74, 3-[3,5-Dichloro-4′-(1,1-dioxo-1-lambda*6*-thiomorpholine-4-carbonyl)-biphenyl-4-ylmethyl]-cis-1-(4-hydroxy-cyclohexyl)-pyrrolidin-2-one] | 6 nM |  |  |
| O=C(c1ccc(-c2cc(Cl)c(C[C@@H]3CCN(C4CC=CCC4)C3=O)c(Cl)c2)cc1)N1CCC(C(F)(F)F)CC1 (stereo partly drawn) [Example 92, (R)-1-cyclohex-3-enyl-3-[3,5-dichloro-4′-(4-trifluoromethyl-piperidine-1-carbonyl)-biphenyl-4-ylmethyl]-pyrrolidin-2-one] | 36.8 nM | 633 nM |  |
| O=C(c1ccc(-c2cc(Cl)c(C[C@@H]3CCN(C4CCOCC4)C3=O)c(Cl)c2)cc1)N1CCC(C(F)(F)F)CC1 [Example 95, (R)-3-[3,5-dichloro-4′-(4-trifluoromethyl-piperidine-1-carbonyl)-biphenyl-4-ylmethyl]-1-(tetrahydro-pyran-4-yl)-pyrrolidin-2-one] |  |  | 80% |
| O=C(c1ccc(-c2cc(Cl)c(C[C@@H]3CCN(C4CCOCC4)C3=O)c(Cl)c2)cc1)N1CCS(=O)(=O)CC1 [Example 99, (R)-3-[3,5-Dichloro-4′-(1,1-dioxo-116-thiomorpholine-4-carbonyl)-biphenyl-4-ylmethyl]-1-(tetrahydro-pyran-4-yl)-pyrrolidin-2-one] | 72.8 nM |  |  |

More lines, main results first:

| IC50 [3] | SMILES | IC50 [1] | % Inhibition after 16 hours (dose of 10 (mg/kg)) [2] |
| --- | --- | --- | --- |
| 4.3 nM | O=C(c1ccc(-c2cc(Cl)c(CC3CCN(C4CCCCC4)C3=O)c(Cl)c2)cc1)N1CCOCC1 (stereo not shown) [Example 4, 1-Cyclohexyl-3-[3,5-dichloro-4′-(morpholine-4-carbonyl)-biphenyl-4-ylmethyl]-pyrrolidin-2-one] |  |  |
| 6.4 nM | COCCN(CCOC)C(=O)c1ccc(-c2cc(Cl)c(CC3CCN(C4CCCCC4)C3=O)c(Cl)c2)cc1 (stereo not shown) [Example 5] |  |  |
| 11.4 nM | O=C(c1ccc(-c2cc(Cl)c(CC3CCN(C4CCCCC4)C3=O)c(Cl)c2)cc1)N1CCNCC1 (stereo not shown) [Example 49, 1-cyclohexyl-3-[3,5-dichloro-4′-(piperazine-1-carbonyl)-biphenyl-4-ylmethyl]-pyrrolidin-2-one] |  |  |
